Results as given in the supplement of paper PMC10307832.

Tests used:
Test in all cases: relative viability (nuclei count vs DMSO), 5 days (fraction); higher = more cells survive
XAV939 = compound: Oc1nc(-c2ccc(C(F)(F)F)cc2)nc2c1CSCC2 [XAV939]
Method in brief: (§1)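 Viability here means nuclei in treated wells divided by nuclei in vehicle wells, reported as the median across plates. Only plates with control CV below 25% and at least one doubling passed. Lung cancer cell lines in 1536-well plates were exposed to five √10-spaced library-drug doses for 5 days and counted from 4× Hoechst images in MetaXpress.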

C-75 = compound: CCCCCCCC[C@H]1[C@@H](C(=C)C(=O)O1)C(=O)O [C-75]
Method in brief: as §1

Navitoclax = compound: CC1(C)CCC(c2ccc(Cl)cc2)=C(CN2CCN(c3ccc(C(=O)NS(=O)(=O)c4ccc(N[C@H](CCN5CCOCC5)CSc5ccccc5)c(S(=O)(=O)C(F)(F)F)c4)cc3)CC2)C1 [Navitoclax]
Method in brief: as §1

AZD7762 = compound: NC(=O)Nc1cc(-c2cccc(F)c2)sc1C(=O)N[C@H]1CCCNC1 [AZD7762]
Method in brief: as §1

[1] = compound: O=C(O)c1ccc(-c2c[nH]c3ncc(-c4ccccc4)cc23)cc1C1CCCC1
Method in brief: as §1

With UMC-11 the relative viability (XAV939; 0.08 µM) was 0.996, the relative viability (XAV939; 0.253 µM) was 0.777 and the relative viability (XAV939; 0.8 µM) was 0.955. The relative viability (XAV939; 2.53 µM) was 0.868, the relative viability (C-75; 0.08 µM) was 0.949 and the relative viability (C-75; 0.253 µM) was 1.1. The relative viability (C-75; 0.8 µM) was 0.875, the relative viability (C-75; 2.53 µM) was 0.721 and the relative viability (C-75; 8 µM) was 0.726. It also gave a relative viability (Navitoclax; 0.005 µM) of 0.944, a relative viability (Navitoclax; 0.01581 µM) of 0.966 and a relative viability (Navitoclax; 0.05 µM) of 0.742. The relative viability (Navitoclax; 0.1581 µM) was 0.903, the relative viability (Navitoclax; 0.5 µM) was 0.621 and the relative viability (Navitoclax; 0.5 µM, anchor plate) was 0.324. It also gave a relative viability (AZD7762; 0.01 µM) of 0.997, a relative viability (AZD7762; 0.03162 µM) of 0.961 and a relative viability (AZD7762; 0.1 µM) of 0.979. It also gave a relative viability (AZD7762; 0.3162 µM) of 0.822, a relative viability (AZD7762; 1 µM) of 0.537 and a relative viability ([1]; 0.04 µM) of 0.978. The relative viability ([1]; 0.1265 µM) was 1.08, the relative viability ([1]; 0.4 µM) was 0.934 and the relative viability ([1]; 1.265 µM) was 0.905.
Work on HCC-44 yielded a relative viability (XAV939; 0.08 µM) of 0.962, a relative viability (XAV939; 0.253 µM) of 0.899 and a relative viability (XAV939; 0.8 µM) of 0.915. For the same cell line, the relative viability (XAV939; 2.53 µM) was 0.929, the relative viability (C-75; 0.08 µM) was 1 and the relative viability (C-75; 0.253 µM) was 0.991. The relative viability (C-75; 0.8 µM) was 0.908, the relative viability (C-75; 2.53 µM) was 0.824 and the relative viability (C-75; 8 µM) was 1.05. The relative viability (Navitoclax; 0.005 µM) was 0.897, the relative viability (Navitoclax; 0.01581 µM) was 0.906 and the relative viability (Navitoclax; 0.05 µM) was 0.977. The relative viability (Navitoclax; 0.1581 µM) was 0.849, the relative viability (Navitoclax; 0.5 µM) was 0.96 and the relative viability (Navitoclax; 0.5 µM, anchor plate) was 0.98. The relative viability (AZD7762; 0.01 µM) was 1.01, the relative viability (AZD7762; 0.03162 µM) was 0.958 and the relative viability (AZD7762; 0.1 µM) was 1.06. It also gave a relative viability (AZD7762; 0.2 µM, anchor plate) of 1, a relative viability (AZD7762; 0.3162 µM) of 0.874 and a relative viability (AZD7762; 1 µM) of 0.914. The relative viability ([1]; 0.04 µM) was 0.97, the relative viability ([1]; 0.1265 µM) was 0.99 and the relative viability ([1]; 0.4 µM) was 0.973. The relative viability ([1]; 1.265 µM) was 0.928.
LK-2 gave a relative viability (XAV939; 0.08 µM) of 1.06, a relative viability (XAV939; 0.253 µM) of 0.877 and a relative viability (XAV939; 0.8 µM) of 1.01. It also gave a relative viability (XAV939; 2.53 µM) of 0.755, a relative viability (C-75; 0.08 µM) of 0.911 and a relative viability (C-75; 0.253 µM) of 1.25. The relative viability (C-75; 0.8 µM) was 1.02, the relative viability (C-75; 2.53 µM) was 0.841 and the relative viability (C-75; 8 µM) was 0.706. It also gave a relative viability (Navitoclax; 0.005 µM) of 1.02, a relative viability (Navitoclax; 0.01581 µM) of 1.03 and a relative viability (Navitoclax; 0.05 µM) of 1.11. It also gave a relative viability (Navitoclax; 0.1581 µM) of 0.997, a relative viability (Navitoclax; 0.5 µM) of 1.02 and a relative viability (Navitoclax; 0.5 µM, anchor plate) of 0.886. It also gave a relative viability (AZD7762; 0.01 µM) of 1.05, a relative viability (AZD7762; 0.03162 µM) of 1.12 and a relative viability (AZD7762; 0.1 µM) of 0.955. For the same cell line, the relative viability (AZD7762; 0.2 µM, anchor plate) was 0.467, the relative viability (AZD7762; 0.3162 µM) was 0.938 and the relative viability (AZD7762; 1 µM) was 0.776. For the same cell line, the relative viability ([1]; 0.04 µM) was 1, the relative viability ([1]; 0.1265 µM) was 1.06 and the relative viability ([1]; 0.4 µM) was 0.872. The relative viability ([1]; 1.265 µM) was 0.944.
Work on NCI-H2126 yielded a relative viability (XAV939; 0.08 µM) of 1.01, a relative viability (XAV939; 0.253 µM) of 0.826 and a relative viability (XAV939; 0.8 µM) of 0.822. The relative viability (XAV939; 2.53 µM) was 0.807, the relative viability (C-75; 0.08 µM) was 0.949 and the relative viability (C-75; 0.253 µM) was 1.14. For the same cell line, the relative viability (C-75; 0.8 µM) was 0.957, the relative viability (C-75; 2.53 µM) was 0.919 and the relative viability (C-75; 8 µM) was 0.943. It also gave a relative viability (Navitoclax; 0.005 µM) of 1.04, a relative viability (Navitoclax; 0.01581 µM) of 1.07 and a relative viability (Navitoclax; 0.05 µM) of 0.901. It also gave a relative viability (Navitoclax; 0.1581 µM) of 0.927, a relative viability (Navitoclax; 0.5 µM) of 0.976 and a relative viability (Navitoclax; 0.5 µM, anchor plate) of 0.852. For the same cell line, the relative viability (AZD7762; 0.01 µM) was 0.972, the relative viability (AZD7762; 0.03162 µM) was 1.07 and the relative viability (AZD7762; 0.1 µM) was 1.05. The relative viability (AZD7762; 0.2 µM, anchor plate) was 1.01, the relative viability (AZD7762; 0.3162 µM) was 1.02 and the relative viability (AZD7762; 1 µM) was 1.09. For the same cell line, the relative viability ([1]; 0.04 µM) was 1.1, the relative viability ([1]; 0.1265 µM) was 1 and the relative viability ([1]; 0.4 µM) was 0.992. For the same cell line, the relative viability ([1]; 1.265 µM) was 0.923.
NCI-H1650 showed a relative viability (XAV939; 0.08 µM) of 0.955, a relative viability (XAV939; 0.253 µM) of 0.844 and a relative viability (XAV939; 0.8 µM) of 0.888. The relative viability (XAV939; 2.53 µM) was 0.616, the relative viability (C-75; 0.08 µM) was 0.925 and the relative viability (C-75; 0.253 µM) was 0.984. The relative viability (C-75; 0.8 µM) was 0.927, the relative viability (C-75; 2.53 µM) was 0.976 and the relative viability (C-75; 8 µM) was 1.09. The relative viability (Navitoclax; 0.005 µM) was 0.896, the relative viability (Navitoclax; 0.01581 µM) was 1.16 and the relative viability (Navitoclax; 0.05 µM) was 0.97. The relative viability (Navitoclax; 0.1581 µM) was 1.01, the relative viability (Navitoclax; 0.5 µM) was 0.857 and the relative viability (Navitoclax; 0.5 µM, anchor plate) was 1.2. For the same cell line, the relative viability (AZD7762; 0.01 µM) was 0.96, the relative viability (AZD7762; 0.03162 µM) was 0.929 and the relative viability (AZD7762; 0.1 µM) was 0.95. For the same cell line, the relative viability (AZD7762; 0.3162 µM) was 0.627, the relative viability (AZD7762; 1 µM) was 0.267 and the relative viability ([1]; 0.04 µM) was 0.891. For the same cell line, the relative viability ([1]; 0.1265 µM) was 1.08, the relative viability ([1]; 0.4 µM) was 0.985 and the relative viability ([1]; 1.265 µM) was 0.716.
Cell Line HOP-62 has a relative viability (XAV939; 0.08 µM) of 1.13, a relative viability (XAV939; 0.253 µM) of 0.996 and a relative viability (XAV939; 0.8 µM) of 0.891. The relative viability (XAV939; 2.53 µM) was 0.893, the relative viability (C-75; 0.08 µM) was 1.02 and the relative viability (C-75; 0.253 µM) was 1.01. The relative viability (C-75; 0.8 µM) was 1.01, the relative viability (C-75; 2.53 µM) was 0.891 and the relative viability (C-75; 8 µM) was 1.02. For the same cell line, the relative viability (Navitoclax; 0.005 µM) was 0.966, the relative viability (Navitoclax; 0.01581 µM) was 1.06 and the relative viability (Navitoclax; 0.05 µM) was 0.968. It also gave a relative viability (Navitoclax; 0.1581 µM) of 0.926, a relative viability (Navitoclax; 0.5 µM) of 1.03 and a relative viability (Navitoclax; 0.5 µM, anchor plate) of 1. It also gave a relative viability (AZD7762; 0.01 µM) of 1.04, a relative viability (AZD7762; 0.03162 µM) of 0.999 and a relative viability (AZD7762; 0.1 µM) of 1.17. It also gave a relative viability (AZD7762; 0.2 µM, anchor plate) of 0.639, a relative viability (AZD7762; 0.3162 µM) of 1.02 and a relative viability (AZD7762; 1 µM) of 0.939. For the same cell line, the relative viability ([1]; 0.04 µM) was 1.08, the relative viability ([1]; 0.1265 µM) was 1.07 and the relative viability ([1]; 0.4 µM) was 0.964. It also gave a relative viability ([1]; 1.265 µM) of 0.923.
With LC-2-ad the relative viability (XAV939; 0.08 µM) was 1.03, the relative viability (XAV939; 0.253 µM) was 0.904 and the relative viability (XAV939; 0.8 µM) was 0.953. For the same cell line, the relative viability (XAV939; 2.53 µM) was 1, the relative viability (C-75; 0.08 µM) was 1.05 and the relative viability (C-75; 0.253 µM) was 1.02. It also gave a relative viability (C-75; 0.8 µM) of 0.93, a relative viability (C-75; 2.53 µM) of 0.789 and a relative viability (C-75; 8 µM) of 0.986. It also gave a relative viability (Navitoclax; 0.005 µM) of 0.961, a relative viability (Navitoclax; 0.01581 µM) of 1.07 and a relative viability (Navitoclax; 0.05 µM) of 0.925. The relative viability (Navitoclax; 0.1581 µM) was 0.948, the relative viability (Navitoclax; 0.5 µM) was 0.991 and the relative viability (Navitoclax; 0.5 µM, anchor plate) was 0.445. The relative viability (AZD7762; 0.01 µM) was 0.992, the relative viability (AZD7762; 0.03162 µM) was 1.1 and the relative viability (AZD7762; 0.1 µM) was 0.998. For the same cell line, the relative viability (AZD7762; 0.2 µM, anchor plate) was 0.86, the relative viability (AZD7762; 0.3162 µM) was 0.908 and the relative viability (AZD7762; 1 µM) was 0.644. The relative viability ([1]; 0.04 µM) was 0.973, the relative viability ([1]; 0.1265 µM) was 1.1 and the relative viability ([1]; 0.4 µM) was 0.933. The relative viability ([1]; 1.265 µM) was 0.692.
